Results on five molecules are retold here after patent US4401671A, “Treatment of giardiasis and trichomoniasis” (priority 1982, dated 1983).

The subject of series [1] is Giardia lamblia. As to conditions: background statement, human infection; cited from earlier work.
The conditions of series [2]: cited from earlier work.
For series [3], the system named is Giardia lamblia. In words: In vitro anti-Giardia lamblia activity (growth inhibition, viable cell count by hemacytometer). Format: cell-based. To be noted: Giardia duodenalis, read-out: Anti-G. lamblia ED50. As for the experimental part:
About 1.0-2.0 ml of a nutrient medium, for example, the modified Diamond's TPS medium at pH 7.05, together with about 10% by volume of heat-inactivated serum and about 1% by volume of antibiotic-antimycotic solution is placed in each well of a multiwell plate. To this mixture, an aliquot of a suspension of G. lamblia cells containing about 10^6 organisms is added. Subsequently, each well is inoculated with a known concentration of one of the active compounds. The multiwell plate containing the individual culture samples is incubated under anaerobic conditions at about 37° C. for about 16-24 hrs. The number of viable cells remaining in each well are then counted, such as with a hemacytometer. […]
In each well of a mutliwell plate is placed 1.4 ml of media mix containing Diamond's TPS medium (see Table 2) at pH 7.05, 10% by volume of heat-inactivated fetal bovine serum, and 1% by volume of an antibiotic-antimycotic solution (see Table 3). […] The cells are resuspended in a small volume of the Diamond's medium, counted, and each well inoculated with approximately 10^6 organisms. […] After 24 hours of incubation each well is mixed and counted for viable organisms using a hemacytometer. The percentage of survival is determined by comparing the treated wells to controls treated with dimethylsulfoxide. […]

The next series relates to Trichomonas foetus. In words: In vitro anti-Trichomonas foetus activity (growth inhibition, viable cell count). The format is cell-based, T. foetus KV1. As to conditions: for IC50: Tritrichomonas foetus, read-out: Anti-T. foetus ED50.
The test system of a further series is T. vaginalis. The series is described as follows: anti-T. vaginalis activity. As to conditions: as shown in Table 1. The format is cell-based, Trichomonas vaginalis.

Converted amounts (≈) assume the structure as drawn. Where two headings read alike, the source gives them in different places.

As to `CCN(CC)CCCC(C)Nc1c2ccc(Cl)cc2nc2ccc(OC)cc12` (stereo not drawn) [Atabrine], the “treatment of giardiasis (in words)” value in the series on Giardia lamblia [1] is on record as “successfully treated”. The “adverse side effects (in words)” value in series [2] (in vivo) is recorded as “known to cause adverse side effects”.

With `Cc1ncc([N+](=O)[O-])n1CCO` [Flagyl, metronidazole], in the series on Giardia lamblia [1], the “treatment of giardiasis (in words)” value is listed as “successfully treated”. Besides, the “adverse side effects (in words)” value in series [2] (in vivo) was “known to cause adverse side effects”.

Turning to `[O-][n+]1ccnc(O)c1` [emimycin, 2-hydroxypyrazine-4-oxide], the IC50 in the series with Giardia lamblia [3] (effective concentration for 50% inhibition of growth, 37° C., anaerobic, about 16-24 hrs (24 hours in Example 1)) is 22 µg/mL (≈ 196 µM); in the series with Trichomonas foetus (effective concentration for 50% inhibition of growth, 37° C., 24 hours, T. foetus KV1), less than 1 µg/mL. In addition, the “anti-T. vaginalis activity (in words)” value in the series with T. vaginalis is recorded as “active anti-T. vaginalis agents”.

As for `O=c1[nH]cc(F)c(=O)[nH]1` [fluorouracil, 5-fluoro-2,4-(1H, 3H)pyrimidenedione], the IC50 in the series with Giardia lamblia [3] was determined as 100 µg/mL (≈ 769 µM); in the series with Trichomonas foetus (24 h) it was 3 µg/mL (≈ 23.1 µM). In addition, the “anti-T. foetus activity (in words)” value with Trichomonas foetus (37° C., 24 hours) is on record as “effective anti-T. foetus agent”.

`O=C1OCCN1N=Cc1ccc([N+](=O)[O-])o1` [furazolidione]: in the series on Giardia lamblia [1], the “treatment of giardiasis (in words)” value is recorded as “successfully treated”. For the same molecule, in series [2] (background statement), the “adverse side effects (in words)” value is recorded as “known to cause adverse side effects”.
